Our source for the IC50 values is EP4752149A1, “OXYGEN-CONTAINING FUSED TRICYCLIC DERIVATIVE, AND PREPARATION METHOD THEREFOR AND USE THEREOF” (Tuojie Biotech (Shanghai) Co., Ltd., priority 2023, dated 2025).

The structures appear in SMILES notation.

The subject of the assay is Ovarian cancer cells (OVCAR3). The experiment in a line: Inhibitory activity against ovarian cancer cells (OVCAR3), CTG cell viability. Type of assay: cell-based. As to conditions: Homo sapiens, OVCAR-3, 168 h, 7 days with compound. On the procedure:
Ovarian cancer cells (OVCAR3) were cultured using an RPMI 1640 culture medium containing 10% FBS in a cell incubator (37 °C, 5% CO2). On day one, the cells were plated in a 384-well plate at a cell concentration of 800 cells/well and cultured overnight in an incubator. On day two, the cells were treated with compounds. The highest compound concentration was 10 µM and was diluted 3-fold to obtain 9 concentrations, and the final concentration of DMSO was 0.1%. After the cells were cultured in the incubator for another 7 days, the cell viability was tested using a CTG Cell Viability Detection Reagent (MCE); the testing method was consistent with the method provided by the kit. Data were processed using GraphPad Prism 8, and IC50 was calculated. [formula] X: the logarithm of the compound concentration; Y: inhibition%. Table 2. The IC50 (nM) of compounds of the present disclosure against OVCAR3
In the case of `C[C@H]1COc2c(-c3nc(Nc4ccc(N5CCOCC5=O)cc4F)ncc3C#N)cc(F)c3nc(C(C)(C)O)n1c23` [Example 13, (S)-4-(8-Fluoro-2-(2-hydroxypropan-2-yl)-3-methyl-3,4-dihydro-5-oxa-1,2a-diazaacenaphthylen-6-yl)-2-((2-fluoro-4-(3-oxomorpholino)phenyl)amino)pyrimidine-5-carbonitrile], the IC50 worked out at 901 nM.
For `C[C@H]1COc2c(-c3nc(Nc4ccc(C(=O)N5CC[C@@H](N(C)C)C5)cc4)ncc3Cl)cc(F)c3nc(C(C)(C)O)n1c23` [Example 42, (4-((5-Chloro-4-((S)-8-fluoro-2-(2-hydroxypropan-2-yl)-3-methyl-3,4-dihydro-5-oxa-1,2a-diazaacenaphthylen-6-yl)pyrimidin-2-yl)amino)phenyl)((R)-3-(dimethylamino)pyrrolidin-1-yl)methanone], the IC50 is 674 nM.
For the compound `C[C@H]1COc2c(-c3nc(Nc4ccc(N5CCOCC5=O)cc4)ncc3F)cc(F)c3nc(C(C)(C)O)n1c23` [Example 18, (S)-4-(4-((5-Fluoro-4-(8-fluoro-2-(2-hydroxypropan-2-yl)-3-methyl-3,4-dihydro-5-oxa-1,2a-diazaacenaphthylen-6-yl)pyrimidin-2-yl)amino)phenyl)morpholin-3-one], the IC50 turned out to be 103 nM.
As for `C[C@H]1COc2c(-c3nc(Nc4ccc(CC#N)cc4)ncc3Cl)cc(F)c3nc(C(C)(C)O)n1c23` [Example 29], the IC50 was determined as 335 nM.
For `C[C@H]1COc2c(-c3nc(Nc4ccc(N5CCOCC5=O)cc4F)ncc3F)cc(F)c3nc(C4(O)CCC4)n1c23` [Example 28, (S)-4-(3-Fluoro-4-((5-fluoro-4-(8-fluoro-2-(1-hydroxycyclobutyl)-3-methyl-3,4-dihydro-5-oxa-1,2a-diazaacenaphthylen-6-yl)pyrimidin-2-yl)amino)phenyl)morpholin-3-one], the IC50 was determined as 137 nM.
As for `C[C@H]1COc2c(-c3nc(Nc4ccc(N5CCOCC5=O)c(Cl)c4)ncc3Cl)cc(F)c3nc(C(C)(C)O)n1c23` [Example 25, (S)-4-(2-Chloro-4-((5-chloro-4-(8-fluoro-2-(2-hydroxypropan-2-yl)-3-methyl-3,4-dihydro-5-oxa-1,2a-diazaacenaphthylen-6-yl)pyrimidin-2-yl)amino)phenyl)morpholin-3-one], the IC50 turned out to be 409 nM.
Take `CNS(=O)(=O)c1ccc(Nc2ncc(F)c(-c3cc(F)c4nc(C(C)(C)O)n5c4c3OC[C@@H]5C)n2)c(F)c1` [Example 16, (S)-3-Fluoro-4-((5-fluoro-4-(8-fluoro-2-(2-hydroxypropan-2-yl)-3-methyl-3,4-dihydro-5-oxa-1,2a-diazaacenaphthylen-6-yl)pyrimidin-2-yl)amino)-N-methylbenzenesulfonamide]: the IC50 was found to be 222 nM.
For `C[C@H]1COc2c(-c3nc(Nc4ccc(C(=O)N5CC[C@H](N(C)C)C5)c(F)c4)ncc3Cl)cc(F)c3nc(C(C)(C)O)n1c23` [Example 35, (4-((5-Chloro-4-((S)-8-fluoro-2-(2-hydroxypropan-2-yl)-3-methyl-3,4-dihydro-5-oxa-1,2a-diazaacenaphthylen-6-yl)pyrimidin-2-yl)amino)2-fluorophenyl)((S)-3-(dimethylamino)pyrrolidin-1-yl)methanone], the IC50 was determined as 202 nM.
Take `CNS(=N)(=O)c1ccc(Nc2ncc(Cl)c(-c3cc(F)c4nc(C(C)(C)O)n5c4c3OC[C@@H]5C)n2)c(F)c1` (stereo partly drawn) [Example 9, 4-((5-Chloro-4-((S)-8-fluoro-2-(2-hydroxypropan-2-yl)-3-methyl-3,4-dihydro-5-oxa-1,2a-diazaacenaphthylen-6-yl)pyrimidin-2-yl)amino)-3-fluoro-N-methylbenzenesulfonimide]: the IC50 is 752 nM.
In the case of `C[C@H]1COc2c(-c3nc(Nc4ccc(S(C)(=N)=O)cc4)ncc3Cl)cc(F)c3nc(C(C)(C)O)n1c23` (stereo partly drawn) [Example 19, (4-((5-Chloro-4-((S)-8-fluoro-2-(2-hydroxypropan-2-yl)-3-methyl-3,4-dihydro-5-oxa-1,2a-diazaacenaphthylen-6-yl)pyrimidin-2-yl)amino)phenyl)(methyl)sulfinamide], the IC50 was 276 nM.
As to `CC(O)c1nc2c(F)cc(-c3nc(Nc4ccc(N5CCOCC5=O)cc4F)ncc3F)c3c2n1[C@@H](C)CO3` (stereo partly drawn) [Example 21, 4-(3-Fluoro-4-((5-fluoro-4-((3S)-8-fluoro-2-(1-hydroxyethyl)-3-methyl-3,4-dihydro-5-oxa-1,2a-diazaacenaphthylen-6-yl)pyrimidin-2-yl)amino)phenyl)morpholin-3-one], the concentration for half-maximal inhibition (IC50) worked out at 260 nM.
Regarding `C[C@H]1COc2c(-c3nc(Nc4ccc(C(=O)N5CC[C@H](N(C)C)C5)c(Cl)c4)ncc3Cl)cc(F)c3nc(C(C)(C)O)n1c23` [Example 36, (2-Chloro-4-((5-chloro-4-((S)-8-fluoro-2-(2-hydroxypropan-2-yl)-3-methyl-3,4-dihydro-5-oxa-1,2a-diazaacenaphthylen-6-yl)pyrimidin-2-yl)amino)phenyl)((S)-3-(dimethylamino)pyrrolidin-1-yl)methanone], the IC50 amounted to 961 nM.
In the case of `C[C@H]1COc2c(-c3nc(Nc4ccc(C(=O)N5CC[C@@H](N(C)C)C5)c(Cl)c4)ncc3Cl)cc(F)c3nc(C(C)(C)O)n1c23` [Example 38, (2-Chloro-4-((5-chloro-4-((S)-8-fluoro-2-(2-hydroxypropan-2-yl)-3-methyl-3,4-dihydro-5-oxa-1,2a-diazaacenaphthylen-6-yl)pyrimidin-2-yl)amino)phenyl)((R)-3-(dimethylamino)pyrrolidin-1-yl)methanone] it was 690 nM.
For the compound `C[C@H]1COc2c(-c3nc(Nc4ccc(C(=O)N5CC[C@H](N(C)C)C5)cc4)ncc3Cl)cc(F)c3nc(C(C)(C)O)n1c23` [Example 40, (4-((5-Chloro-4-((S)-8-fluoro-2-(2-hydroxypropan-2-yl)-3-methyl-3,4-dihydro-5-oxa-1,2a-diazaacenaphthylen-6-yl)pyrimidin-2-yl)amino)phenyl)((S)-3-(dimethylamino)pyrrolidin-1-yl)methanone], the IC50 was found to be 364 nM.
In the case of `C[C@H]1COc2c(-c3nc(Nc4ccc(S(C)(=N)=O)cc4)ncc3F)cc(F)c3nc(C(C)(C)O)n1c23` (stereo partly drawn) [Example 17, (4-((5-Fluoro-4-((S)-8-fluoro-2-(2-hydroxypropan-2-yl)-3-methyl-3,4-dihydro-5-oxa-1,2a-diazaacenaphthylen-6-yl)pyrimidin-2-yl)amino)phenyl)(methyl)sulfonimide] it was 154 nM.
Regarding `C[C@H]1COc2c(-c3nc(Nc4ccc(N5CCC(N(C)C)CC5=O)cc4F)ncc3Cl)cc(F)c3nc(C(C)(C)O)n1c23` (stereo partly drawn) [Example 12, 1-(4-((5-Chloro-4-((S)-8-fluoro-2-(2-hydroxypropan-2-yl)-3-methyl-3,4-dihydro-5-oxa-1,2a-diazaacenaphthylen-6-yl)pyrimidin-2-yl)amino)-3-fluorophenyl)-4-(dimethylamino)piperidin-2-one], the IC50 was found to be 643 nM.
Regarding `C[C@H]1COc2c(-c3nc(Nc4ccc(N5CCOCC5=O)cc4F)ncc3F)cc(F)c3ncn1c23` [Example 2, (S)-4-(3-Fluoro-4-((5-fluoro-4-(8-fluoro-3-methyl-3,4-dihydro-5-oxa-1,2a-diazaacenaphthylen-6-yl)pyrimidin-2-yl)amino)phenyl)morpholin-3-one], the IC50 was 47.5 nM.
As for `Cc1nc2c(F)cc(-c3nc(Nc4ccc(N5CCOCC5=O)cc4F)ncc3F)c3c2n1[C@@H](C)CO3` [Example 6, (S)-4-(3-Fluoro-4-((5-fluoro-4-(8-fluoro-2,3-dimethyl-3,4-dihydro-5-oxa-1,2a-diazaacenaphthylen-6-yl)pyrimidin-2-yl)amino)phenyl)morpholin-3-one], the IC50 amounted to 80.2 nM.
`C[C@H]1COc2c(-c3nc(Nc4ccc(S(C)(=N)=O)cc4F)ncc3F)cc(F)c3nc(C(C)(C)O)n1c23` (stereo partly drawn) [Example 15, (3-Fluoro-4-((5-fluoro-4-((S)-8-fluoro-2-(2-hydroxypropan-2-yl)-3-methyl-3,4-dihydro-5-oxa-1,2a-diazaacenaphthylen-6-yl)pyrimidin-2-yl)amino)phenyl)(methyl)sulfonimide]: the IC50 amounted to 636 nM.
For the compound `CNS(=O)(=O)c1ccc(Nc2ncc(Cl)c(-c3cc(F)c4nc(C(C)(C)O)n5c4c3OC[C@@H]5C)n2)cc1` [Example 5, (S)-4-((5-Chloro-4-(8-fluoro-2-(2-hydroxypropan-2-yl)-3-methyl-3,4-dihydro-5-oxa-1,2a-diazaacenaphthylen-6-yl)pyrimidin-2-yl)amino)-N-methylbenzenesulfonamide], the IC50 turned out to be 89.9 nM.
Turning to `C[C@H]1COc2c(-c3nc(Nc4ccc(N5CCOCC5=O)c(F)c4)ncc3Cl)cc(F)c3nc(C(C)(C)O)n1c23` [Example 24, (S)-4-(4-((5-Chloro-4-(8-fluoro-2-(2-hydroxypropan-2-yl)-3-methyl-3,4-dihydro-5-oxa-1,2a-diazaacenaphthylen-6-yl)pyrimidin-2-yl)amino)2-fluorophenyl)morpholin-3-one], the IC50 turned out to be 255 nM.
With `CNC(=O)c1ccc(Nc2ncc(Cl)c(-c3cc(F)c4nc(C(C)(C)O)n5c4c3OC[C@@H]5C)n2)cc1` [Example 11, (S)-4-((5-Chloro-4-(8-fluoro-2-(2-hydroxypropan-2-yl)-3-methyl-3,4-dihydro-5-oxa-1,2a-diazaacenaphthylen-6-yl)pyrimidin-2-yl)amino)-N-methylbenzamide], the IC50 turned out to be 673 nM.
Turning to `CCN1CCN(C(=O)c2ccc(Nc3ncc(Cl)c(-c4cc(F)c5nc(C(C)(C)O)n6c5c4OC[C@@H]6C)n3)cc2F)CC1` [Example 32, (S)-(4-((5-Chloro-4-(8-fluoro-2-(2-hydroxypropan-2-yl)-3-methyl-3,4-dihydro-5-oxa-1,2a-diazaacenaphthylen-6-yl)pyrimidin-2-yl)amino)-2-fluorophenyl)(4-ethylpiperazin-1-yl)methanone], the 50% inhibitory concentration (IC50) stood at 426 nM.

The IC50 is the concentration at which inhibition is half-maximal.
